Data taken from ChEMBL document CHEMBL4311992, “Discovery of 3-(((9H-purin-6-yl)amino)methyl)-4,6-dimethylpyridin-2(1H)-one derivatives as novel tubulin polymerization inhibitors for treatment of cancer” (Eur J Med Chem, 2019).
Calls of active or inactive are those of the source. No cut-off for these calls is given here.

Legend:
[1] = molecular target: High affinity nerve growth factor receptor (Homo sapiens) (UniProt P04629); test: Inhibition of human TrkA (440 to end residues) using KKKSPGEYVNIEFG as substrate measured after 40 mins in presence of [gamma33P]ATP by scintillation counting method; set-up: scale not given: the % may be the effect or the level left
[2] = molecular target: Serine/threonine-protein kinase Nek3 (Homo sapiens) (UniProt P51956); test: Inhibition of recombinant full-length human NEK3 assessed as residual activity at 10 uM using myelin basic protein as substrate measured after 40 mins in presence of [gamma33P]ATP by scintillation counting method
[3] = molecular target: Serine/threonine-protein kinase 38-like (Homo sapiens) (UniProt Q9Y2H1); test: Inhibition of recombinant human NDR2 (83 to end residues) assessed as residual activity at 10 uM using RSRSRSRSRSRSRSR as substrate measured after 40 mins in presence of [gamma33P]ATP by scintillation counting method
[4] = species on record: Homo sapiens; test: Inhibition of recombinant human Mer H628Q/R794A mutant (557 to 882 residues) assessed as residual activity at 10 uM using GGMEDIYFEFMGGKKK as substrate measured after 40 mins in presence of [gamma33P]ATP by scintillation counting method
[5] = molecular target: Cyclin-dependent kinase-like 1 (Homo sapiens) (UniProt Q00532); test: Inhibition of recombinant human CDKL1 (1 to 303 residues) assessed as residual activity at 10 uM using RRRFRPASPLRGP as substrate measured after 120 mins in presence of [gamma33P]ATP by scintillation counting method
[6] = molecular target: NT-3 growth factor receptor (Homo sapiens) (UniProt Q16288); test: Inhibition of human TrkC (510 to end residues) using GEEPLYWSFPAKKK as substrate measured after 40 mins in presence of [gamma33P]ATP by scintillation counting method; set-up: scale not given: the % may be the effect or the level left
[7] = species on record: Homo sapiens; test: Inhibition of recombinant full-length human PI3K p110delta/p85alpha N253S mutant assessed as residual activity at 10 uM using phosphatidylinositol-4, 5-bisphosphate as substrate measured after 40 mins by fluorescence assay
[8] = test system: Serine/threonine-protein kinase B-raf (Homo sapiens), P15056 [V600E]; test: Inhibition of recombinant human BRAF V599E mutant (416 to end residues) assessed as residual activity at 10 uM using myelin basic protein as substrate measured after 40 mins in presence of [gamma33P]ATP by scintillation counting method
[9] = molecular target: Serine/threonine-protein kinase ICK (Homo sapiens) (UniProt Q9UPZ9); test: Inhibition of recombinant human ICK (1 to 312 residues) assessed as residual activity at 10 uM using RRRFRPASPLRGPPK as substrate measured after 40 mins in presence of [gamma33P]ATP by scintillation counting method
[10] = molecular target: Eukaryotic translation initiation factor 2-alpha kinase 1 (Homo sapiens) (UniProt Q9BQI3); test: Inhibition of recombinant human HRI (140 to end residues) assessed as residual activity at 10 uM using RSRSRSRSRSRSRSR as substrate measured after 120 mins in presence of [gamma33P]ATP by scintillation counting method
[11] = test system: Fibroblast growth factor receptor 1 (Homo sapiens), P11362 [V561M]; test: Inhibition of recombinant human FGFR1 V561M mutant (456 to 765 residues) assessed as residual activity at 10 uM using GGEEEEYFELVKKKK as substrate measured after 40 mins in presence of [gamma33P]ATP by scintillation counting method
[12] = molecular target: Death-associated protein kinase 2 (Homo sapiens) (UniProt Q9UIK4); test: Inhibition of recombinant full-length human DAPK2 assessed as residual activity at 10 uM using calmodulin as substrate measured after 40 mins in presence of [gamma33P]ATP by scintillation counting method
[13] = molecular target: Activin receptor type-1 (Homo sapiens) (UniProt Q04771); test: Inhibition of recombinant human ALK2 (142 to end residues) assessed as residual activity at 10 uM using casein as substrate measured after 40 mins in presence of [gamma33P]ATP by scintillation counting method
[14] = test system: SW-620; test: Cell cycle arrest in human SW620 cells assessed as up regulation of cdc25 expression up to 150 nM after 24 hrs by Western blot analysis; type: functional, cell-based
[15] = test system: Discoidin domain-containing receptor 2 (Homo sapiens), Q16832 [UNDEFINED MUTATION]; test: Inhibition of recombinant human DDR2 S642A mutant (467 to end residues) assessed as residual activity at 10 uM using KKSRGDYMTMQIG as substrate measured after 40 mins in presence of [gamma33P]ATP by scintillation counting method
[16] = molecular target: Epidermal growth factor receptor (Homo sapiens) (UniProt P00533); test: Inhibition of recombinant human EGFR (696 to end residues) assessed as residual activity at 10 uM using poly(Glu, Tyr) 4:1 as substrate measured after 40 mins in presence of [gamma33P]ATP by scintillation counting method
[17] = molecular target: Receptor-type tyrosine-protein kinase FLT3 (Homo sapiens) (UniProt P36888); test: Inhibition of recombinant human Flt3 (564 to end residues) assessed as residual activity at 10 uM using EAIYAAPFAKKK as substrate measured after 40 mins in presence of [gamma33P]ATP by scintillation counting method
[18] = molecular target: MAPK/MAK/MRK overlapping kinase (Homo sapiens) (UniProt Q9UQ07); test: Inhibition of recombinant human MOK (1 to 343 residues) assessed as residual activity at 10 uM using RSRSRSRSRSRSRSR as substrate measured after 40 mins in presence of [gamma33P]ATP by scintillation counting method
[19] = molecular target: [Pyruvate dehydrogenase (acetyl-transferring)] kinase isozyme 4, mitochondrial (Homo sapiens) (UniProt Q16654); test: Inhibition of recombinant full-length human PDHK4 assessed as residual activity at 10 uM using KKKYHGHSMSDPGVSYRT as substrate measured after 40 mins in presence of [gamma33P]ATP by scintillation counting method
[20] = molecular target: Serine/threonine-protein kinase ULK3 (Homo sapiens) (UniProt Q6PHR2); test: Inhibition of recombinant full-length human ULK3 assessed as residual activity at 10 uM using casein as substrate measured after 40 mins in presence of [gamma33P]ATP by scintillation counting method
[21] = molecular target: Serine/threonine-protein kinase WNK2 (Homo sapiens) (UniProt Q9Y3S1); test: Inhibition of human WNK2 (166 to 489 residues) using myelin basic protein as substrate measured after 40 mins in presence of [gamma33P]ATP by scintillation counting method; set-up: scale not given: the % may be the effect or the level left
[22] = test system: PI3-kinase p110-alpha/p85-alpha (Homo sapiens), P27986+P42336 [E545K]; test: Inhibition of recombinant full-length human PI3K p110alpha/p85alpha E545K mutant assessed as residual activity at 10 uM using phosphatidylinositol-4, 5-bisphosphate as substrate measured after 40 mins by fluorescence assay; type: protein-complex assay
[23] = test system: SW-620; test: Induction of apoptosis in human SW620 cells assessed as necrotic cells at 50 nM measured after 48 hrs by Annexin V-FITC/propidium iodide staining-based flow cytometry (reference value: 2.71%); type: functional

Chain of Receptor-type tyrosine-protein kinase FLT3 (Homo sapiens) (P36888 whole entry, the tested form may be a part): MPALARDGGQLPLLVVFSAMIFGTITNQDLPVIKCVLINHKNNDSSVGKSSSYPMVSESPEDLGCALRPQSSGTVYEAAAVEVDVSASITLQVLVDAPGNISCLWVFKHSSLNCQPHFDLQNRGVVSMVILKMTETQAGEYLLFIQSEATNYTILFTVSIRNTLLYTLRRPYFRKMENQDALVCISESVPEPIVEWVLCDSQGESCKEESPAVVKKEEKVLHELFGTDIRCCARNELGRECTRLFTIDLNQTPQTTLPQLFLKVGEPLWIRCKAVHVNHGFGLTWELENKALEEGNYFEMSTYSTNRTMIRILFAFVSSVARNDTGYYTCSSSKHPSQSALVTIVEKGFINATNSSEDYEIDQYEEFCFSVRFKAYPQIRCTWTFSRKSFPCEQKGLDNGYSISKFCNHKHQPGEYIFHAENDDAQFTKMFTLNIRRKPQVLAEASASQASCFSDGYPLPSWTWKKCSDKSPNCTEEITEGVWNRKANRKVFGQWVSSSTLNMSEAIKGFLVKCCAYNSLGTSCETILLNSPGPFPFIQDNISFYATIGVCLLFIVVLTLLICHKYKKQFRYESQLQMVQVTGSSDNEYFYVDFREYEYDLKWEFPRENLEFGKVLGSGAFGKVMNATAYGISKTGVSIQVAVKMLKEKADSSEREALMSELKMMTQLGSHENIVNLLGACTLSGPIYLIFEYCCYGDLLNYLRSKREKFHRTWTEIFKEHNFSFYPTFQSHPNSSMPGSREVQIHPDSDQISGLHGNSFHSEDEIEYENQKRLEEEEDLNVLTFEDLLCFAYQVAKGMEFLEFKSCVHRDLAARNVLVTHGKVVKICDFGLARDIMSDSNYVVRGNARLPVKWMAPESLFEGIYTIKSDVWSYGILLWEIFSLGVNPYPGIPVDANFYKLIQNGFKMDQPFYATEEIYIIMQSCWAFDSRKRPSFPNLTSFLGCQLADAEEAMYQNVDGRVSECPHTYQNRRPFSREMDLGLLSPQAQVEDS
Chain of Serine/threonine-protein kinase 38-like (Homo sapiens) (Q9Y2H1 2-464 limits assumed): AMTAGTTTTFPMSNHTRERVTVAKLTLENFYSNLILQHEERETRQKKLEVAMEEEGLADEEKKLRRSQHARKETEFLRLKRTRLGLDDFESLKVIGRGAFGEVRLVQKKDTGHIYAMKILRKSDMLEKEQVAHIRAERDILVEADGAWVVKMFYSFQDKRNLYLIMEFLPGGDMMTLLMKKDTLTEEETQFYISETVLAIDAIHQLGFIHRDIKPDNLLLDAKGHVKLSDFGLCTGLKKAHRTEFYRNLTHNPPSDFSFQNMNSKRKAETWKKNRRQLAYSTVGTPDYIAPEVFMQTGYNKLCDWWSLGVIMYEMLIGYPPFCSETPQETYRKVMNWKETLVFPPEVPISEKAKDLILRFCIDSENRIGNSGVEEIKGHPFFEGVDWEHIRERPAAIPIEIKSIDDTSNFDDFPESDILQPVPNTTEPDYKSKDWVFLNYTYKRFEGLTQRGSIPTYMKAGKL
Chain of Serine/threonine-protein kinase Nek3 (Homo sapiens) (P51956 whole entry): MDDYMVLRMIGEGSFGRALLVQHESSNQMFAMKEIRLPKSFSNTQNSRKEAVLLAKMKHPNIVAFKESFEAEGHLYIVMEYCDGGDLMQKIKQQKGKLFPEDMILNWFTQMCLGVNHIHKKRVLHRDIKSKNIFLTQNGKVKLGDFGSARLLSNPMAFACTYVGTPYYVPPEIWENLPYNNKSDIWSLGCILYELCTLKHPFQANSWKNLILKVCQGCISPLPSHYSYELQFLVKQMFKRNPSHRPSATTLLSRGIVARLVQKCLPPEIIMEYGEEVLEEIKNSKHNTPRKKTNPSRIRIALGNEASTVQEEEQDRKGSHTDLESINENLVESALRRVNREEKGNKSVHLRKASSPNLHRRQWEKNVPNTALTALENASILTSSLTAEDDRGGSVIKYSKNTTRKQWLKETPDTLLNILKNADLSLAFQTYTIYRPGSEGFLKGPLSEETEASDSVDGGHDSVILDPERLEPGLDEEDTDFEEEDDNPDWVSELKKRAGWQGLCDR
Chain of Cyclin-dependent kinase-like 1 (Homo sapiens) (Q00532 whole entry, the tested form may be a part): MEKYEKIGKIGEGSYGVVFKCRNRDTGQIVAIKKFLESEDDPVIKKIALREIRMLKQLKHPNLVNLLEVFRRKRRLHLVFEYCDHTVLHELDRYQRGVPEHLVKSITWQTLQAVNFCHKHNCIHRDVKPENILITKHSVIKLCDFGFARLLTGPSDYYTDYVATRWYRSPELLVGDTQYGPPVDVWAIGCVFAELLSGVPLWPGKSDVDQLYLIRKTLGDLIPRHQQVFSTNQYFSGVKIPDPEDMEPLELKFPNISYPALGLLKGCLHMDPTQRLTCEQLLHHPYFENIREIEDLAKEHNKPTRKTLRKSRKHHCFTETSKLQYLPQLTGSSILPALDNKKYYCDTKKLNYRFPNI
Chain of Activin receptor type-1 (Homo sapiens) (Q04771 whole entry): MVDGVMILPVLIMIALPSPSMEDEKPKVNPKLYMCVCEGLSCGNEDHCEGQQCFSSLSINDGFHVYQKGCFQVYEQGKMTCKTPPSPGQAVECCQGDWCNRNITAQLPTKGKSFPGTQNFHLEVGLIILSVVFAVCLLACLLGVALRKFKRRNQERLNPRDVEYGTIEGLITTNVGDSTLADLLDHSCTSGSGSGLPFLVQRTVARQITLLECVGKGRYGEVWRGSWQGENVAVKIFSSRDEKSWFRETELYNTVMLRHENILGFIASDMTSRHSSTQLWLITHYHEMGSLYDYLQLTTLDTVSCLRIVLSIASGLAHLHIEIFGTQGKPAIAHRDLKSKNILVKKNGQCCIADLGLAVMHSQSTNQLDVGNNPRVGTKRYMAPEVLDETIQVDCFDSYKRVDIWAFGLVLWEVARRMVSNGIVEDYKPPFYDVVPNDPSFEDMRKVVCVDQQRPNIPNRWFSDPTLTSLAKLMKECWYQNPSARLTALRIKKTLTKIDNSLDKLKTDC
Chain of Death-associated protein kinase 2 (Homo sapiens) (Q9UIK4 whole entry, looked up): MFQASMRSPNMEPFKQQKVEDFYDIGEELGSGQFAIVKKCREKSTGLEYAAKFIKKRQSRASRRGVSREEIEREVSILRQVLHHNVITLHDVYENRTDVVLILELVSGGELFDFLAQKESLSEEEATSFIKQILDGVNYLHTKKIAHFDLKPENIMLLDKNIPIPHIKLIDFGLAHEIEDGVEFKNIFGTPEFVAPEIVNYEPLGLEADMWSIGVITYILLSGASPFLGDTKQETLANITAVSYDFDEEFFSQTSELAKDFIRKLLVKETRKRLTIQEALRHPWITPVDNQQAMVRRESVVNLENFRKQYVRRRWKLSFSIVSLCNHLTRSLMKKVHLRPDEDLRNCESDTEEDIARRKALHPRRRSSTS
Chain of MAPK/MAK/MRK overlapping kinase (Homo sapiens) (Q9UQ07 whole entry, the tested form may be a part): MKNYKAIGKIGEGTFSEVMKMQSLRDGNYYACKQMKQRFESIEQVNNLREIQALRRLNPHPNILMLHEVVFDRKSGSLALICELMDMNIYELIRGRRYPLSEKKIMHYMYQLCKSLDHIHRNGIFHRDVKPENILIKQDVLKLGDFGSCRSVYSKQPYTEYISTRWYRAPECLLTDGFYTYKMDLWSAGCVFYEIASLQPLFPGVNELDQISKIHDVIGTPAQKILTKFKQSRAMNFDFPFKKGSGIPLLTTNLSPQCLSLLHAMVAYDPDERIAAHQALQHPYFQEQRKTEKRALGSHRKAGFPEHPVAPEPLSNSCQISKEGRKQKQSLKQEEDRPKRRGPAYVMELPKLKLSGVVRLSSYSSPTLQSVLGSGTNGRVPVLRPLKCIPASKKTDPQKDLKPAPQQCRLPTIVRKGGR
Chain of High affinity nerve growth factor receptor (Homo sapiens) (P04629 33-796 limits assumed): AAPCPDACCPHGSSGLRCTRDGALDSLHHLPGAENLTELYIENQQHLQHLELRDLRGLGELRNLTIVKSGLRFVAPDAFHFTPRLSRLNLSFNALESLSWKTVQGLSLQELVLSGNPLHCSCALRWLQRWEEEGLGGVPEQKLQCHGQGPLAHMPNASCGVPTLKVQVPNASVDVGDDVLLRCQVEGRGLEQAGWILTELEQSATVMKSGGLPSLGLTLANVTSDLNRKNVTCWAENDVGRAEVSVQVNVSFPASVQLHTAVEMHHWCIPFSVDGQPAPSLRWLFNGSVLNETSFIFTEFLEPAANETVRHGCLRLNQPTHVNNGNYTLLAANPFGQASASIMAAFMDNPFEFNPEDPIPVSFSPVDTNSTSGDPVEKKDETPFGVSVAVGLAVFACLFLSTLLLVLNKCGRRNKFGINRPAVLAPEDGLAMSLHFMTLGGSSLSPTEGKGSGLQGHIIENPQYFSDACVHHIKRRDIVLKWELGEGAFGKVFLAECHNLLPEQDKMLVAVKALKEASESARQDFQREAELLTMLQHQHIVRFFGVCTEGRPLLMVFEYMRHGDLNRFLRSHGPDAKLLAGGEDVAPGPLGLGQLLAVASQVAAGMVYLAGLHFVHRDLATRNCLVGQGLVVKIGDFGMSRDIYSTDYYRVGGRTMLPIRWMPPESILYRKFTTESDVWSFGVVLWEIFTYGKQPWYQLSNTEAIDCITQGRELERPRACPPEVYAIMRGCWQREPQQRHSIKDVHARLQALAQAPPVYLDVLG
Chain of Eukaryotic translation initiation factor 2-alpha kinase 1 (Homo sapiens) (Q9BQI3 whole entry, the tested form may be a part): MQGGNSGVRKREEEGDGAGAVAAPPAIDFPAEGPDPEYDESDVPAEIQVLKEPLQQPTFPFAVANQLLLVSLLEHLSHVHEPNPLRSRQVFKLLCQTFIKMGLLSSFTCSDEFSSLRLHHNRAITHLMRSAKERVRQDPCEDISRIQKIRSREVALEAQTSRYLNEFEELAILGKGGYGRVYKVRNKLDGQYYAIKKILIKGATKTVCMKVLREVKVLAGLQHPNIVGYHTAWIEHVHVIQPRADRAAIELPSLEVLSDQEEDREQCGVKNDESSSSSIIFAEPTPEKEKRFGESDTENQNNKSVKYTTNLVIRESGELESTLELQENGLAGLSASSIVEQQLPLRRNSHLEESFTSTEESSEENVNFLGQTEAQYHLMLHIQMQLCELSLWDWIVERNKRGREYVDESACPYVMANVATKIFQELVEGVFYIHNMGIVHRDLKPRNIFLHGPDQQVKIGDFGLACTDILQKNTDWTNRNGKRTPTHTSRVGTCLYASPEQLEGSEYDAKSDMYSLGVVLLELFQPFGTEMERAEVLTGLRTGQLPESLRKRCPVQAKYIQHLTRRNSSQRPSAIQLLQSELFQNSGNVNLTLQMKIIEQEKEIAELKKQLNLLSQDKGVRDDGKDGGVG

Cc1cc(C)c(CNc2nc(Cl)nc3c2ncn3C2CCCC2)c(=O)[nH]1
Activity [1]: 92% | Activity [2]: 102% | Activity [3]: 108% | Activity [4]: 109% | Activity [5]: 122% | Activity [6]: 110% | Activity [7]: 99.5% | Activity [8]: 108% | Activity [9]: 114% | Activity [10]: 102% | Activity [11]: 95.5% | Activity [12]: 97% | Activity [13]: 106% | Activity [14]: Active | Activity [15]: 97% | Activity [16]: 114% | Activity [17]: 130% | Activity [18]: 104% | Activity [19]: 95% | Activity [20]: 102% | Activity [21]: 110% | Activity [22]: 93.5% | Activity [23]: 6.3%
